Assay results published in patent publication US10519211B2, “Compounds as peptidic GLP1/glucagon/GIP receptor agonists” (SANOFI, priority 2016, dated 2019).

Columns and labels:
[1] = system: female, diabetic db/db mice; experiment: Acute effects after subcutaneous treatment on blood glucose in non-fasting diabetic db/db mice; assay type: in vivo, mouse
Procedure: Female healthy, lean BKS.Cg-(lean)/OlaHsd and diabetes-prone, obese BKS.Cg-+Lepr^db/+Lepr^db/OlaHsd mice were ordered group housed from Envigo RMS Inc., shipped group housed and remained group housed in shoebox caging with wood chip bedding until day 15 of the predose phase. At the study start mice were approximately 12 weeks old.
Mice were housed under vivarium conditions including a 12 h light/dark cycle (light phase 04:00 AM-4:00 PM), room temperatures between 23-26° C. and a relative humidity between 30-70%. All animals had free access to water and Purina Fomulab Diet 5008.
On predose day 9 blood glucose and body mass (approximately between 08:00-10:00 AM) as well as HbA1c measurements were performed. On day 15 of the predose phase animals were assigned to treatment groups (n=8) and to new cages to match mean HbA1c and body masses between all db/db groups. An age-matched lean group was included in the study as a healthy, lean reference.
Prior to day 1 of the dosing phase, the test article was diluted with Phosphate Buffered Saline (PBS, Gibco, without CaCl2 and MgCl2) to a concentration of 1 mg/mL and aliquots of this stock solution were stored at approximately −60° C. On day 1 of the dosing phase the stock aliquot was thawed and the injected test article solution was prepared fresh by diluting it with PBS to achieve the desired concentration.
On Day 1 of the dosing phase db/db mice were either treated once with a s.c. injection of PBS-vehicle or 30 μg/kg test article. The lean reference group was treated once with a s.c. injection of PBS-vehicle. The dosing was initiated and completed between 08:00 and 10:00 AM. The applied volume was 5 ml/kg and the dose was adjusted to the most recent body mass recording of each individual.
Animals had unlimited access to water and feed during the experiment. On day 1 of the dosing phase approximately 5 μL of blood were collected via tail clips at minute −30 and 0 prior to any other inlife activities. At minute 0 mice received a s.c. dose of either PBS-vehicle or 30 μg/kg test article. Further blood samples were harvested at hour 0.25, 0.5, 1, 1.5, 2, 3, 4, 6, 8, and 24 post-dose. Glucose measurements were performed in whole blood using AlphaTRAK glucometers. If the glucose concentrations of two measurements differed by more than 20 mg/dL a third value was recorded. The Area Under the Curve (AUC) for blood glucose was calculated via the trapezoid method and for the duration of the 24 post-dose hours.
Data are depicted as means±SEM. […] A One-Way ANOVA and Tukey Test were used for pairwise multiple comparisons of all groups (n=8/group, deviations from group size are indicated). […] Data from a Non-Diabetic-Vehicle group serve as a reference dataset for the normoglycemic, lean state.
Female, 12 weeks old, healthy, lean BKS.Cg-(lean)/OlaHsd or diabetes-prone, obese BKS.Cg-+Leprdb/+Leprdb/OlaHsd mice were treated once with a s.c. injection of PBS, 30 μg/kg SEQ ID NO: 6 or 30 μg/kg SEQ ID NO: 7. The dosing was initiated and completed between 08:00 and 10:00 AM. The applied volume was 5 ml/kg and the dose was adjusted to the most recent body mass recording of each individual. Diabetic db/db mice were HbA1c- and body mass-matched. The lean reference group was treated once with a s.c. injection of PBS-vehicle.
Animals had unlimited access to water and feed during the experiment. On day 1 of the dosing phase approximately 5 μL of blood were collected via tail clips at minute −30 and 0 prior to any other inlife activities. At minute 0 mice received a s.c. dose of either PBS-vehicle, 30 μg/kg SEQ ID NO: 6 or SEQ ID NO: 7. Further blood samples were harvested at minute 15, 30, 60, 90, 120, 150, 180, 240, 360, and 480 post-dose. Glucose measurements were performed in whole blood using AlphaTRAK glucometers. If the glucose concentrations of two measurements differed by more than 20 mg/dL a third value was recorded. […]

[2] = Solubility assessment (UPLC-UV); assay type: physicochemical; conditions: acetate buffer pH 4.5, 2.7 mg/ml m-cresol (buffer system A), target 10 mg/ml
Outline: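 Peptides at 10 mg/mL (purity-corrected, by UPLC/MS) in 100 mM acetate buffer pH 4.5 with 2.7 mg/ml m-Cresol, gently agitated 1 hour, then centrifuged 15 min at 2500 RCF. Supernatant, diluted 1:10, quantified by UPLC-UV peak area against a reference peptide standard curve, extinction-coefficient corrected.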

solubility at 1 h [2]: > 9600 µg/mL
Structure (SMILES): CCCCCCCCCCCCCCCC(=O)N[C@@H](CCC(=O)N[C@@H](CCC(=O)NCCCC[C@H](NC(=O)[C@H](CC(C)C)NC(=O)[C@H](CCCCN)NC(=O)[C@H](CO)NC(=O)[C@H](CC(C)C)NC(=O)[C@H](CC(=O)O)NC(=O)[C@H](CO)NC(=O)[C@@H](NC(=O)[C@H](Cc1ccccc1)NC(=O)[C@@H](NC(=O)CNC(=O)[C@H](CCC(N)=O)NC(=O)C(C)(C)NC(=O)[C@@H](N)Cc1c[nH]cn1)[C@@H](C)O)[C@@H](C)O)C(=O)N[C@@H](CCC(=O)O)C(=O)N[C@@H](CCCCN)C(=O)N[C@@H](CCC(N)=O)C(=O)N[C@@H](CCCNC(=N)N)C(=O)N[C@@H](CCC(N)=O)C(=O)NC(C)(C)C(=O)N[C@@H](CCC(=O)O)C(=O)N[C@@H](Cc1ccccc1)C(=O)N[C@H](C(=O)N[C@@H](CCC(=O)O)C(=O)N[C@@H](Cc1c[nH]c2ccccc12)C(=O)N[C@@H](CC(C)C)C(=O)N[C@@H](CCCCN)C(=O)N[C@@H](C)C(=O)NCC(=O)NCC(=O)N1CCC[C@H]1C(=O)N1CCC[C@H]1C(=O)N[C@@H](CO)C(=O)NC(C)(C)C(=O)N[C@@H](CCCCN)C(=O)N1CCC[C@H]1C(=O)N1CCC[C@H]1C(=O)N1CCC[C@H]1C(=O)N[C@@H](CCCCN)C(N)=O)[C@@H](C)CC)C(=O)O)C(=O)O [SEQ ID NO: 6, H-Aib-Q-G-T-F-T-S-D-L-S-K-L-K[gGlu-gGlu-Palm]-E-K-Q-R-Q-Aib-E-F-I-E-W-L-K-A-G-G-P-P-S-Aib-K-P-P-P-K-NH2]
Blood glucose AUC compared to the Diabetic-Vehicle group ([1]; 30 μg/kg s.c. once, 24 h, in words): statistically significant reduction in the blood glucose AUC
Time post dose at which lowest blood glucose levels were reached ([1]; 30 μg/kg s.c. once, fed db/db mice): approximately 8 hours
Blood glucose profile following single treatment ([1]; 30 μg/kg s.c. once, fed db/db mice, in words): acute decrease in blood glucose concentrations
Plasma glucose area under the curve (mmol/L in 24 h) ([1]; Table 10, once 30 μg/kg s.c., fed db/db mice, mean ± SEM): +430.70 ± 26.41 mmol/L in 24 h
